Results as given in paper PMC10401708, “Enzymatic Hydroxylation of Aliphatic C–H Bonds by a Mn/Fe Cofactor” (Journal of the American Chemical Society, 2023).

Experiments:
AibH1H2 [1] = target: T1, AibH1H2 (Rhodococcus wratislaviensis, UniProt A0A402C2Q3); experiment: GC-MS of silylated D-MeSer product; format: biochemical; conditions: preliminary estimate; O2, ascorbate as reductant, 1 equiv Fe(II) added to Mn-grown enzyme; 20 mM HEPES pH 8.0, 30 °C
T1 construct: gene Rhow_000803; recombinant, E. coli BL21(DE3), pET-Duet-AibH1H2 with GroEL/ES-TF; His6-tagged; (alpha-beta)2 heterotetramer; Mn-grown (MnAibH1H2), Fe(II) added; with 2-aminoisobutyric acid hydroxylase subunit AibH1 (amidohydrolase family protein)

AibH1H2 [2] = target: T2, AibH1H2 (Rhodococcus wratislaviensis, UniProt A0A402C2Q3, D342A); experiment: enzymatic activity assay (GC-MS); format: biochemical; conditions: diminished activity although all metals are incorporated
T2 construct: gene Rhow_000803; recombinant, E. coli BL21(DE3), pET-Duet-AibH1H2 with GroEL/ES-TF; His6-tagged; (alpha-beta)2 heterotetramer; Mn-grown (MnAibH1H2), Fe(II) added; with 2-aminoisobutyric acid hydroxylase subunit AibH1 (amidohydrolase family protein)
T2 sequence (A0A402C2V4 entry or part of it, stated change not applied): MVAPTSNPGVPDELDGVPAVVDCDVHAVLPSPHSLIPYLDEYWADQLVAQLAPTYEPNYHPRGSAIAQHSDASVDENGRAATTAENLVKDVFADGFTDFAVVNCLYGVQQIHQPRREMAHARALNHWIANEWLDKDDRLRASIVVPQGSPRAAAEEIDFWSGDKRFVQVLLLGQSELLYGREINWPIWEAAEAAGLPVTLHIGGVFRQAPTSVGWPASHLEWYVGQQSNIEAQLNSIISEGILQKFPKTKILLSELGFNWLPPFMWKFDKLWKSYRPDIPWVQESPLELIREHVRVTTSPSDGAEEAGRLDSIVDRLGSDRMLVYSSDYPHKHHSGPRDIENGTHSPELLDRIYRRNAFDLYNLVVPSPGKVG
T2 sequence (A0A402C2Q3 entry or part of it D342A): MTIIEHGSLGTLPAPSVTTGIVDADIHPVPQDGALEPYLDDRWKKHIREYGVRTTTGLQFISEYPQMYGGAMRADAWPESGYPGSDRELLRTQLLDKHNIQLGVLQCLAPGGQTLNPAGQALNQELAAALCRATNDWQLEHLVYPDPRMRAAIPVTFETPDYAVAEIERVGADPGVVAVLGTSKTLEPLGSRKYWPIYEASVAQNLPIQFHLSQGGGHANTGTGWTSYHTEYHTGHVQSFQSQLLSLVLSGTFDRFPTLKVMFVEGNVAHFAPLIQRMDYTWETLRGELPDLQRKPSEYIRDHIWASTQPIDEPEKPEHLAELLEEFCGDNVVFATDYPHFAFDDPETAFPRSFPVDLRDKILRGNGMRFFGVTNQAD

T1 sequence (A0A402C2Q3 entry or part of it): as the sequence (A0A402C2Q3 entry or part of it D342A) above, with A342D counted along it
T1 sequence (A0A402C2V4 entry or part of it, further chain): as the sequence (A0A402C2V4 entry or part of it, stated change not applied) above

Structure (SMILES): CC(C)(N)C(=O)O [AIB, 2-aminoisobutyric acid]
- Km (AibH1H2 [1]): > 100 mM
- enzymatic activity assay (GC-MS) (AibH1H2 [2]): upon substitution to alanine, results in protein with diminished enzymatic activity
